From ChEMBL document CHEMBL5244223, “l,8-Naphthalimide based DNA intercalators and anticancer agents. A systematic review from 2007 to 2017” (Eur J Med Chem, 2018)
Converted amounts (≈) assume the structure as drawn.

Key:
Proteus vulgaris = experiment: Antibacterial activity against Proteus vulgaris assessed as inhibition of bacterial growth by two-fold serial dilution assay; type: functional
Shigella dysenteriae = experiment: Antibacterial activity against Shigella dysenteriae assessed as inhibition of bacterial growth by two-fold serial dilution assay; type: functional
MCF7 = experiment: Cytotoxicity against human MCF7 cells assessed as cell growth inhibition by CCK-8 assay; type: functional, cell-based

`CCNc1ccc2c3c(cccc13)C(=O)N(CC(O)Cn1c([N+](=O)[O-])cnc1C)C2=O` (stereo not drawn) gave an MIC (Proteus vulgaris) of 2 µM (≈ 0.847 µg/mL), an MIC (Shigella dysenteriae) of 10 µM (≈ 4.23 µg/mL) and an IC50 (MCF7) of 8.51 µM.
